PubChem BioAssay AID248 (DTP/NCI, 2004)
“And” between values parts separate entries of the source, which are not always exact repeats. Equal entries are not always repeated. Toxic doses and inconclusive results are not listed. No stated cut-off is given here; in the data, active means T/C of 150% or more; inactive means T/C below 125%.

System: L1210 leukemia ip in BDF1 mice, survival T/C
Test: NCI In Vivo Anticancer Drug Screen. Data for tumor model L1210 Leukemia (intraperitoneal) in B6D2F1 (BDF1) mice
Details: endpoint: mean survival time, higher = longer survival
Outline: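 Tumor cells were implanted, animals were treated, and survival was followed. The result divides the treated measurement by the vehicle-control measurement.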

[1] = dose: 100.0 mg/kg/injection, schedule: Q04DX003 (ip), vehicle: saline
[2] = dose: 200.0 mg/kg/injection, schedule: Q04DX003 (ip), vehicle: saline
[3] = dose: 400.0 mg/kg/injection, schedule: Q04DX003 (ip), vehicle: saline
[4] = dose: 100.0 mg/kg/injection, schedule: Q01DX001 (ip), vehicle: Klucel (hydroxypropylcellulose) (HPC)
[5] = dose: 200.0 mg/kg/injection, schedule: Q01DX001 (ip), vehicle: Klucel (hydroxypropylcellulose) (HPC)
[6] = dose: 400.0 mg/kg/injection, schedule: Q01DX001 (ip), vehicle: Klucel (hydroxypropylcellulose) (HPC)
[7] = dose: 100.0 mg/kg/injection, schedule: Q01DX001 (ip), vehicle: saline
[8] = dose: 200.0 mg/kg/injection, schedule: Q01DX001 (ip), vehicle: saline
[9] = dose: 100.0 mg/kg/injection, schedule: Q01DX001 (ip), vehicle: other
[10] = dose: 200.0 mg/kg/injection, schedule: Q01DX001 (ip), vehicle: other
[11] = dose: 100.0 mg/kg/injection, schedule: Q01DX009 (ip), vehicle: saline
[12] = dose: 100.0 mg/kg/injection, schedule: Q04DX003 (ip), vehicle: Klucel (hydroxypropylcellulose) (HPC)
[13] = dose: 200.0 mg/kg/injection, schedule: Q01DX009 (ip), vehicle: saline
[14] = dose: 200.0 mg/kg/injection, schedule: Q04DX003 (ip), vehicle: Klucel (hydroxypropylcellulose) (HPC)
[15] = dose: 400.0 mg/kg/injection, schedule: Q01DX009 (ip), vehicle: saline
[16] = dose: 400.0 mg/kg/injection, schedule: Q04DX003 (ip), vehicle: Klucel (hydroxypropylcellulose) (HPC)
[17] = dose: 400.0 mg/kg/injection, schedule: Q01DX001 (ip), vehicle: saline

Measured: T/C

O=C1C=C(O)c2[nH]c(=O)ccc2C1=O
inactive: dose: 5.0 mg/kg/injection, schedule: Q01DX001 (ip), vehicle: saline 97 % of control | dose: 10.0 mg/kg/injection, schedule: Q01DX001 (ip), vehicle: saline 101 % of control | dose: 20.0 mg/kg/injection, schedule: Q01DX001 (ip), vehicle: saline 97 % of control | dose: 40.0 mg/kg/injection, schedule: Q01DX001 (ip), vehicle: saline 97 % of control

C1CC2OC2CC1C1CO1 (centres undefined)
inactive: [1] 105 % of control | [2] 109 % of control | [3] 102 % of control

Cc1cc(OCCBr)ccc1[N+](=O)[O-]
inactive: [4] 92 % of control | [5] 95 % of control | [6] 95 % of control

CCOc1ccc(/C=N/Nc2c3ccccc3nc3ccccc23)cc1OCC
inactive: [7] 92 % of control | [8] 95 % of control

C/C(=C\c1ccc(C)cc1)[N+](=O)[O-]
inactive: dose: 50.0 mg/kg/injection, schedule: Q01DX001 (ip), vehicle: other 108 % of control | [9] 100 % of control | [10] 92 % of control | dose: 400.0 mg/kg/injection, schedule: Q01DX001 (ip), vehicle: other 103 % of control

O=C(O)C(CSCc1ccccc1)NSc1ccccc1[N+](=O)[O-] (centres undefined)
inactive: [4] 105 % of control | [1] 97 % of control | [5] 105 % of control | [2] 95 % of control | [6] 101 % of control | [3] 106 % of control

CC(=O)Nc1cc(C)no1
inactive: [11] 103 % of control | [12] 102 % of control | [13] 100 % of control | [14] 96 % of control | [15] 101 % of control | [16] 92 % of control

O=C1/C(=C\C=C\c2ccccc2)CCCC/C1=C\C=C\c1ccccc1
inactive: dose: 50.0 mg/kg/injection, schedule: Q01DX001 (ip), vehicle: carboxymethylcellulose (CMC) 97 % of control | dose: 100.0 mg/kg/injection, schedule: Q01DX001 (ip), vehicle: carboxymethylcellulose (CMC) 90 % of control | dose: 200.0 mg/kg/injection, schedule: Q01DX001 (ip), vehicle: carboxymethylcellulose (CMC) 97 % of control | dose: 400.0 mg/kg/injection, schedule: Q01DX001 (ip), vehicle: carboxymethylcellulose (CMC) 92 % of control

CC(C)(C)CC(C)(C)NS(=O)(=O)NC(C)(C)CC(C)(C)C
inactive: dose: 100.0 mg/kg/injection, schedule: Q01DX009 (ip), vehicle: saline with Tween-80 103 % of control | dose: 200.0 mg/kg/injection, schedule: Q01DX009 (ip), vehicle: saline with Tween-80 93 % of control | dose: 400.0 mg/kg/injection, schedule: Q01DX009 (ip), vehicle: saline with Tween-80 92 % of control

O=C1C=C(c2c(-c3ccccc3)[nH]c3ccccc23)C(=O)c2ccccc21
inactive: [9] 92 % of control | [10] 97 % of control

O=C(C#Cc1ccccc1)Nc1ccccc1
inactive: [12] 114 % of control | [14] 97 % of control | [16] 98 % of control

Cc1cc(Oc2nccnc2C)cc(C)c1N(C)C
inactive: [12] 101 % of control | [14] 94 % of control | [16] 94 % of control

CCCCC(=O)N/N=C/c1ccc(Cl)c([N+](=O)[O-])c1
inactive: [7] 91 % of control | [8] 89 % of control | [17] 91 % of control

c1ccc(-c2coc(-c3ccccc3)c2)cc1
inactive: dose: 100.0 mg/kg/injection, schedule: Q04DX002 (ip), vehicle: Klucel (hydroxypropylcellulose) (HPC) 101 % of control | dose: 200.0 mg/kg/injection, schedule: Q04DX002 (ip), vehicle: Klucel (hydroxypropylcellulose) (HPC) 101 % of control | dose: 400.0 mg/kg/injection, schedule: Q04DX002 (ip), vehicle: Klucel (hydroxypropylcellulose) (HPC) 97 % of control

O=S1Cc2cc3ccccc3cc2C1
inactive: dose: 100.0 mg/kg/injection, schedule: Q01DX001 (ip), vehicle: saline with Tween-80 102 % of control | dose: 200.0 mg/kg/injection, schedule: Q01DX001 (ip), vehicle: saline with Tween-80 103 % of control | dose: 400.0 mg/kg/injection, schedule: Q01DX001 (ip), vehicle: saline with Tween-80 108 % of control

O=Cc1ccc(OC(=O)Nc2ccccc2F)cc1
inactive: [7] 96 % of control | [11] 98 % of control and 101 % of control | dose: 100.0 mg/kg/injection, schedule: Q04DX002 (ip), vehicle: saline 103 % of control and 107 % of control | [8] 99 % of control | [13] 106 % of control and 112 % of control | dose: 200.0 mg/kg/injection, schedule: Q04DX002 (ip), vehicle: saline 100 % of control and 104 % of control | [17] 92 % of control | [15] 96 % of control | dose: 400.0 mg/kg/injection, schedule: Q04DX002 (ip), vehicle: saline 93 % of control and 109 % of control

COc1ccc(/C=N/NC(=O)c2ccccc2)c(OC)c1
inactive: dose: 100.0 mg/kg/injection, schedule: Q01DX009 (ip), vehicle: Klucel (hydroxypropylcellulose) (HPC) 100 % of control | dose: 200.0 mg/kg/injection, schedule: Q01DX009 (ip), vehicle: Klucel (hydroxypropylcellulose) (HPC) 100 % of control | dose: 400.0 mg/kg/injection, schedule: Q01DX009 (ip), vehicle: Klucel (hydroxypropylcellulose) (HPC) 103 % of control
